Assay results reported in the supplement of paper PMC12592484.

Legend:
Test in all cases: drug sensitivity score (DSS2, normalised partial AUC of dose-response, 72 h CellTiter-Glo viability) (DSS (dimensionless)); higher = more sensitive (stronger growth inhibition / cytotoxicity); extreme values may be limits of the assay
22Rv1 = system: 22Rv1
In short: (§1)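 Low-passage primary prostate cancer-associated fibroblasts, PF179T, WPMY-1, LNCaP and 22Rv1 cells were seeded into 384-well plates carrying pre-dispensed compounds at five doses covering a 10,000-fold range. After 72 h, viability was read by CellTiter-Glo 2.0 luminescence. Responses were scaled to vehicle and positive-control wells. The drug sensitivity score (DSS2) is a partial area under the fitted logistic dose–response curve divided by the log of its upper asymptote, computed in BREEZE; higher means more sensitive.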

CAF#1 = system: CAF#1 (primary prostate cancer-associated fibroblasts of myCAF-like type)
In short: as §1

CAF#2 = system: CAF#2 (primary prostate cancer-associated fibroblasts of iCAF-like type)
In short: as §1

CAF#3 = system: CAF#3 (primary prostate cancer-associated fibroblasts of myCAF-like type)
In short: as §1

CAF#4 = system: CAF#4 (primary prostate cancer-associated fibroblasts of iCAF-like type)
In short: as §1

CAF#5 = system: CAF#5 (primary prostate cancer-associated fibroblasts of myCAF-like type)
In short: as §1

CAF#6 = system: CAF#6 (primary prostate cancer-associated fibroblasts of iCAF-like type)
In short: as §1

CAF#7 = system: CAF#7 (primary prostate cancer-associated fibroblasts of myCAF-like type)
In short: as §1

LNCAP = system: LNCAP
In short: as §1

PF179T = system: PF179T
In short: as §1

WPMY-1 = system: WPMY-1
In short: as §1

Compound	drug sensitivity score (22Rv1)	drug sensitivity score (CAF#1)	drug sensitivity score (CAF#2)	drug sensitivity score (CAF#3)	drug sensitivity score (CAF#4)	drug sensitivity score (CAF#5)	drug sensitivity score (CAF#6)	drug sensitivity score (CAF#7)	drug sensitivity score (LNCAP)	drug sensitivity score (PF179T)	drug sensitivity score (WPMY-1)
CC(=O)N(O)CCCCCNC(=O)CCC(=O)N(O)CCCCCNC(=O)CCC(=O)N(O)CCCCCN [Deferoxamine] (tested concentration range 1-10000 nM)	4.9	0.9	4.8	0.2	3.2	2.4	1.4	1.6	3.2	5.7	5.3
O=C(O)CCCCC(CCSCc1ccccc1)SCc1ccccc1 (centres undefined) [Devimistat] (tested concentration range 1-10000 nM)	0	0	0	0	0	0	0	0	0	0	0
C[C@@H]1C[C@H]2[C@@H]3CCC4=CC(=O)C=C[C@]4(C)[C@@]3(F)[C@@H](O)C[C@]2(C)[C@@]1(O)C(=O)CO [Dexamethasone] (tested concentration range 1-10000 nM)	0	0	0	0	0	0	0	0.3	0	0	0
C[C@H]1O[C@@H](O[C@H]2[C@@H](O)C[C@H](O[C@H]3[C@@H](O)C[C@H](O[C@H]4CC[C@@]5(C)[C@H](CC[C@@H]6[C@@H]5C[C@@H](O)[C@]5(C)[C@@H](C7=CC(=O)OC7)CC[C@]65O)C4)O[C@@H]3C)O[C@@H]2C)C[C@H](O)[C@@H]1O [Digoxin] (tested concentration range 0.1-1000 nM)	14.4	10.2	13.8	8.7	19.4	13.4	10.8	11.2	12	13.6	14.7
CCc1cnn2c(NCc3ccc[n+]([O-])c3)cc(N3CCCC[C@H]3CCO)nc12 [Dinaciclib] (tested concentration range 0.1-1000 nM)	21.5	18.5	18.2	12.3	13	18	14.2	15.9	27.6	10.6	18.9
CCN(CC)C(=S)SSC(=S)N(CC)CC [Disulfiram] (tested concentration range 5-50000 nM)	0	5	3.7	0	0.9	6.6	0	0.1	0.1	0	0
CC(=O)O[C@@]12CO[C@@H]1C[C@H](O)[C@@]1(C)C(=O)[C@H](O)C3=C(C)[C@@H](OC(=O)[C@H](O)[C@@H](NC(=O)OC(C)(C)C)c4ccccc4)C[C@@](O)([C@@H](OC(=O)c4ccccc4)[C@H]21)C3(C)C [Docetaxel] (tested concentration range 0.1-1000 nM)	25.4	16.4	20.6	12.8	14.2	17.2	16.7	25.6	34.6	19.7	28.3
Cc1ccc(-n2nc(C(C)(C)C)cc2NC(=O)Nc2ccc(OCCN3CCOCC3)c3ccccc23)cc1 [Doramapimod] (tested concentration range 1-10000 nM)	2.5	1.9	2.7	1.2	0	0.6	0.9	1.4	5.4	2.1	0
CN1CCN(c2ccc3nc(-c4c(N)c5c(F)cccc5[nH]c4=O)[nH]c3c2)CC1 [Dovitinib] (tested concentration range 1-10000 nM)	0.2	0.2	2.6	0.7	0	0.8	0	0	0.3	0	0
COc1cccc2c1C(=O)c1c(O)c3c(c(O)c1C2=O)C[C@@](O)(C(=O)CO)C[C@@H]3O[C@H]1C[C@H](N)[C@H](O)[C@H](C)O1 [Doxorubicin] (tested concentration range 0.1-1000 nM)	12.2	6.5	7.8	0	2.6	6.7	0	0	0	7.5	9.8
C[C@H](Nc1ncnc2nc[nH]c12)c1cc2cccc(Cl)c2c(=O)n1-c1ccccc1 [Duvelisib] (tested concentration range 0-500 nM)	0	1.1	1	3.4	1.7	2.3	1.3	1.9	11	1.7	0.5
NC(=O)/C(=C/n1cnc(-c2cc(C(F)(F)F)cc(C(F)(F)F)c2)n1)c1cncnc1 [Eltanexor] (tested concentration range 1-10000 nM)	31.1	14.5	22.8	10.8	15.5	16.8	12.1	14.4	28.6	18.2	27.5
CC(C)(O)CNc1nc(Nc2ccnc(C(F)(F)F)c2)nc(-c2cccc(C(F)(F)F)n2)n1 [Enasidenib] (tested concentration range 1-10000 nM)	1.7	0	0	0.4	0	0	0	0	1.2	0	0
COC(=O)N[C@@H](C)CNc1nccc(-c2cn(C(C)C)nc2-c2cc(Cl)cc(NS(C)(=O)=O)c2F)n1 [Encorafenib] (tested concentration range 0.1-1000 nM)	2.3	0.6	0	2	0.5	0.7	0.9	1.3	2.3	0.6	0
C[C@@H]1CN(C(=O)c2ccc(NC(=O)c3cc(O[C@H](C)c4c(Cl)ccc(F)c4Cl)c(N)nn3)cc2)C[C@H](C)N1 [Ensartinib] (tested concentration range 0.1-1000 nM)	2.1	2.2	3.1	2.7	0.7	4.1	2.2	0.8	1.4	2.3	3
Nc1ccccc1NC(=O)c1ccc(CNC(=O)OCc2cccnc2)cc1 [Entinostat] (tested concentration range 1-10000 nM)	10.2	5	8.5	2.4	4.8	7.4	2.2	3.5	11.6	8.1	8.5
CN1CCN(c2ccc(C(=O)Nc3n[nH]c4ccc(Cc5cc(F)cc(F)c5)cc34)c(NC3CCOCC3)c2)CC1 [Entrectinib] (tested concentration range 0.1-1000 nM)	1.1	1.3	1.9	2.1	0	0.8	0.7	2.1	1	1	0.9
CNC(=O)c1ccc(N2C(=S)N(c3ccc(C#N)c(C(F)(F)F)c3)C(=O)C2(C)C)cc1F [Enzalutamide] (tested concentration range 1-10000 nM)	0	3.9	2.3	0	2.2	2.8	0.5	0	2.6	0.4	0
Cn1cc(C2=C(c3cn(C4CCN(Cc5ccccn5)CC4)c4ccccc34)C(=O)NC2=O)c2ccccc21 [Enzastaurin] (tested concentration range 1-10000 nM)	4.2	0	2.1	0	1.1	0	1.1	0	4.7	2.3	5.2
NS(=O)(=O)NCCNc1nonc1/C(=N/O)Nc1ccc(F)c(Br)c1 [Epacadostat] (tested concentration range 1-10000 nM)	0	0	1.1	0	2	0.9	0	1.1	0	0.5	0.2
COc1cccc2c1C(=O)c1c(O)c3c(c(O)c1C2=O)C[C@@](O)(C(=O)CO)C[C@@H]3O[C@H]1C[C@H](N)[C@@H](O)[C@H](C)O1 [Epirubicin] (tested concentration range 0.1-1000 nM)	10.1	4.8	6.2	3.7	2.8	4.4	7	7.9	15.7	6.7	9.5
COCC1(CO)C(=O)C2CCN1CC2 (centres undefined) [Eprenetapopt] (tested concentration range 1-10000 nM)	0	0.1	0	0	0	0.4	0	0.2	0	0	0
COc1cc(OC)cc(N(CCNC(C)C)c2ccc3ncc(-c4cnn(C)c4)nc3c2)c1 [Erdafitinib] (tested concentration range 0.1-1000 nM)	0	5.9	4.8	6.2	8.8	2.7	8	15	0	7.2	0
C=C1C[C@@H]2CC[C@@]34C[C@H]5O[C@H]6[C@@H](O3)[C@H]3O[C@H](CC[C@@H]3O[C@H]6[C@H]5O4)CC(=O)C[C@@H]3[C@@H](OC)[C@@H](C[C@H](O)CN)O[C@H]3C[C@H]3O[C@@H](CC[C@@H]1O2)C[C@@H](C)C3=C [Eribulin] (tested concentration range 0.1-1000 nM)	24	12.3	18.3	11.8	9.6	13.7	15.3	22.1	36.5	19.4	28.9
